Results taken from US11369618B2, “Compounds, compositions and methods for prevention and/or treatment of cancer” (THE TRUSTEES OF THE UNIVERSITY OF PENNSYLVANIA, priority 2016, dated 2022).
Entries after “also recorded” stand apart in the source; their conditions may differ.

Assays:
[1] = system: mouse and human melanoma cell lines (B16F10, WM46, WM51, WM3702); assay: melanin assay (differentiation) of mouse and human melanoma cell lines in vitro; format: cell-based; details: estrogen 25 nM E2, G-1 100 nM, vs delivery vehicle
Excerpt: (§1) FIGS. 4A-4F illustrate the finding that GPER signaling slows proliferation and drives differentiation in mouse and human melanoma. FIG. 4A: 5 day proliferation assay of B16F10, WM46 (BRAF^V600E), WM51 (BRAF^V600E), and WM3702 (NRAS^Q61L) cells treated with estrogen (E2), * denotes significance by a two-tailed T-test, n=3 per group. FIG. 4B: 5 day melanin assay of B16F10, WM46 (BRAF^V600E), WM51 (BRAF^V600E), and WM3702 (NRAS^Q61L) cells treated with E2, * denotes significance by a two-tailed T-test, n=3 per group. FIG. 4C: 5 day proliferation assay of B16F10, WM46 (BRAF^V600E), WM51 (BRAF^V600E) and WM3702 (NRAS^Q61L) cells treated with GPER agonist (G-1), * denotes significance by a two-tailed T-test, n=3 per group. FIG. 4D: 5 day melanin assay of B16F10, WM46 (BRAF^V600E), WM51 (BRAF^V600E), and WM3702 (NRAS^Q61L) cells treated with G-1, * denotes significance by a two-tailed T-test, n=3 per group. FIG. 4E: 3 day proliferation assay of B16F10 cells treated with a dose response of G-1, * denotes significance One-way ANOVA with Tukey's multiple comparison test, n=5 per group. FIG. 4F: Western blot of B16F10 cells treated for 16 hours with a saturating dose response of G-1. […]
(§2) Tumor cell proliferation slowed in both mouse and human melanoma cells following treatment with estrogen or G-1, a specific GPER agonist. […] Cell proliferation and differentiation (melanin production) were measured.

[2] = system: Mouse (B16) and human (WM46) melanoma cell lines; assay: tumor formation in mice from melanoma cells pretreated in vitro; format: in vivo
Description: (§3) FIG. 11A: Long-term melanin assay in which normal human melanocytes were transiently treated with progesterone (P4), or estrogen (E2). Subsets of these groups (Red) were treated with an additional transient pulse of P4 at Day 27. Error bars equal the standard deviation of the samples. FIG. 11B: Western blot of melanocyte differentiation markers after a transient, 4-day treatment with either vehicle or estrogen, followed by an 8 day withdraw period. FIG. 11C: Experimental timeline of estrogen or GPER agonist (G-1) pre-treatment of mouse and human melanoma cells, n=5 per group. FIG. 11D: Relative tumor weights of mouse and human melanomas pre-treated with estrogen, * denotes significance by the Mann-Whitney test. FIG. 11E: Relative tumor weights of mouse and human melanomas pre-treated with G-1, * denotes significance by the Mann-Whitney test.
Mouse (B16) and human (WM46) cell lines were pretreated with estrogen, G-1, or vehicle in vitro for one week then injected in equal numbers in to the left (vehicle-treated) or right (E2-treated) flank of mice, inducing tumor formation (N=5 mice per group) (FIG. 5). 14-16 days later, mice were imaged and tumors were harvested and weighed.
To test whether transient GPER signaling induces a persistent differentiation state in melanoma cells that affects subsequent tumor growth in vivo, melanoma cells were treated with estrogen, G-1, or vehicle in vitro, and subsequently injected equal numbers of treated cells into host mice (FIG. 11C).

normal human melanocytes = assay: differentiation of normal human melanocytes after continuous or transient hormone exposure (melanin, RNAseq, Western blot); format: cell-based; details: for melanocyte differentiation state (melanin pigment production) / melanin production after hormone withdrawal: normal human melanocytes; for melanocyte differentiation state (melanin pigment production): hormone or agonist exposure; for melanin production after hormone withdrawal: transient exposure then withdrawal
Description: as §3
Normal human melanocytes received a pulse-treatment of estrogen—this consisted of 4 days of estrogen treatment followed by an 8 day withdraw.
To test whether pregnancy-associated hormones induce long-lasting changes in melanocyte differentiation that may affect their future susceptibility to transformation, primary human melanocytes were transiently exposed to estrogen or progesterone (FIGS. 11A-11E).
A subset of cells differentiated by transient exposure to estrogen was subsequently treated with progesterone.

[3] = system: histone posttranslational modifications; assay: mass spectrometry of histone posttranslational modifications in estrogen-treated melanocytes; format: cell-based, human
Excerpt: FIG. 16B: Western blot of p-RB, c-Myc, and H3K56ac in melanoma cells after treatment with G-1, HDACi, or in combination. FIG. 16C: Proliferation assay of B16F10 melanoma cells after treatment with G-1, HDACi, or in combination.
To begin to identify the epigenetic changes likely underlying stable melanocyte differentiation after GPER activation, mass spectrometry was used to obtain a global analysis of histone posttranslational modifications in estrogen-treated MC.

[4] = system: mouse and human melanoma cell lines (B16F10, WM46, WM51, WM3702); assay: proliferation assay of mouse and human melanoma cell lines in vitro; format: cell-based; details: estrogen 25 nM E2, G-1 100 nM, vs delivery vehicle
Excerpt: as §1, §2

human melanocytes = assay: pigment production and differentiation in human melanocytes treated with MSH or afamelanotide (FIG. 9); format: cell-based
Excerpt: FIG. 9 is a set of bar graphs illustrating the finding that MSH (the endogenous equivalent of afamelanotide) and afamelanotide (also known as […] or NDP-α-MSH) increase pigment production (top) and differentiation (bottom) in human melanocytes.

What does the source list for `C[C@]12CC[C@@H]3c4ccc(O)cc4CC[C@H]3[C@@H]1CC[C@@H]2O` [estrogen, estradiol]?
differentiation (melanin production) [1]: drove differentiation; inhibition of tumor growth in vivo ([2]; cells pretreated in vitro for one week, injected into flank of mice, tumors weighed 14-16 days later): approximately 3 fold; tumor growth / tumor size from pretreated cells ([2]; melanoma cells pretreated in vitro, equal numbers injected into mice): formed significantly smaller tumors; also recorded: markedly reduced subsequent tumor size; also recorded: inhibits melanoma cell line growth in vivo; expression of aggressive melanoma markers such as premelanosome protein (PMEL) (normal human melanocytes; 4 days of treatment followed by an 8 day withdraw, RNAseq): decreased expression; expression of melanocyte differentiation markers (TYR, TRP1, MC1R, MLANA, DCT) (normal human melanocytes; 4 days of treatment followed by an 8 day withdraw, RNAseq, Western blot): maintained upregulated expression of all the major melanocyte differentiation markers; also recorded: stable increases in classic melanocyte differentiation antigens; melanocyte differentiation state (melanin pigment production) (normal human melanocytes): increases melanocyte differentiation state; also recorded: increase the differentiation state of human melanocytes; melanocyte differentiation state (melanin pigment production) (normal human melanocytes; listed as Estrogen): make more pigment; also recorded: increased melanin production; melanin production after hormone withdrawal (normal human melanocytes): stably produced more melanin; H3K9ac mark [3]: decreased; histone acetylation marks regulated by CBP/P300, including H3K122, H3K23, and H3K18 ([3]; 3 independent biologic replicates): significant increases; melanoma cell proliferation [4]: slowed melanoma cell proliferation

`CC(=O)[C@H]1CC[C@H]2[C@@H]3CCC4=CC(=O)CC[C@]4(C)[C@H]3CC[C@]12C` [progesterone] was tested. Which “melanocyte differentiation state (melanin pigment production)” value (normal human melanocytes) did it give?
The value was “had opposite effects”.

And the “melanin production after hormone withdrawal” value (normal human melanocytes)?
The value was “quickly returned to their baseline level of melanin production”.

With “MSH: the endogenous equivalent of afamelanotide (Ac-SYSMEHFRWGKPV-NH2; ends and bridges not checked; UniProt P01189 138-150, looked up)” as the compound, how does the differentiation (human melanocytes) read?
Its differentiation is “increase”.

And the pigment production (human melanocytes)?
The pigment production was “increase”.
